Reference: ChEMBL document CHEMBL1150839, “Dihydroagarofuran sesquiterpene alkaloids from Maytenus putterlickoides” (J Nat Prod, 2001)
The source made the active and inactive calls. The calls are words filed in the database; no cut-off is given here.

Experiments:
[1] = Inhibition of PKC
Artemia = experiment: Toxicity in brine shrimp; type: organism-based; conditions: in vivo

inhibition [1]	SMILES	Activity (Artemia)
inactive	CC(=O)OC[C@]12[C@H](O)[C@H](OC(=O)c3cccnc3)[C@@H]3[C@@H](OC(C)=O)[C@@]14O[C@@]3(C)COC(=O)c1cccnc1[C@@H](C)[C@H](C)C(=O)O[C@@H]([C@H](OC(C)=O)[C@@H]2OC(C)=O)[C@]4(C)O [PUTTERINE A]	Toxic
inactive	CC(=O)OC[C@]12[C@H](O)[C@H](OC(=O)c3cccnc3)[C@@H]3[C@@H](OC(C)=O)[C@@]14O[C@@]3(C)COC(=O)c1cccnc1[C@@H](C)[C@H](C)C(=O)O[C@@H]([C@H](OC(=O)C(C)C)[C@@H]2OC(C)=O)[C@]4(C)O [PUTTERINE B]	Toxic
